Our source for the EC50 values is patent US8575135B2 (Gilead Sciences, Inc., priority 2011, dated 2013).

What all share (test): microbe, parasite or virus in culture
What all share (conditions): Hepatitis C virus

Assay [1] concerns 1a Pi-Rluc replicon with Q30R in genotype 1a NS5A. Format: cell-based, HCV. In outline: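 Renilla luciferase replicon assay: 1a Pi-RLuc replicon carrying NS5A Q30R, transfected transiently into cured-51 (Huh-7-derived) cells.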
Assay [2] relates to stable HCV 2a JFH-1 Rluc replicon cells (L31 present in NS5A). Format: cell-based.
In assay [3] the test system is NS5A chimeric genotype 1b Con1 replicon with genotype 3a S52 strain NS5A gene. Format: cell-based, HCV. A digest of the protocol:
(§1)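 Con1 1b replicons carrying 3a S52 or 4a ED43 NS5A with Pi-RLuc reporter were transiently transfected into Huh-Lunet cells; 2b MD2b-1 NS5A (M31) in JFH-1 2a backbone with RLuc-Neo, transient or stable.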

The test system of assay [4] is NS5A chimeric genotype 2a JFH-1 replicon with genotype 2a J6 strain NS5A gene (M31 present). It is filed as cell-based, HCV.
In assay [5] the test system is NS5A chimeric genotype 2a JFH-1 replicon with genotype 2b MD2b-1 strain NS5A gene (M31 present). Format: cell-based, HCV. In outline: as §1
The subject of assay [6] is stable HCV 1a RLuc replicon cells (genotype 1a H77 replicon). It is filed as cell-based.
Assay [7] concerns NS5A chimeric genotype 1b Con1 replicon with genotype 4a ED43 strain NS5A gene. It is filed as cell-based, HCV.

Where two headings read alike, the source gives them in different places.

As for `COC(=O)N[C@H](C(=O)N1C[C@@H](C)C[C@H]1c1nc2ccc3cc4c(cc3c2[nH]1)OCc1cc(-c2cnc([C@@H]3CCCN3C(=O)[C@H](NC(=O)OC)c3ccccc3)[nH]2)ccc1-4)C(C)C` [Example NB, Methyl {(1R)-2-[(2S)-2-(5-{2-[(2S,4S)-1-{(2S)-2-[(methoxycarbonyl)amino]-3-methylbutanoyl}-4-methylpyrrolidin-2-yl]-1,11-dihydroisochromeno[4′,3′:6,7]naphtho[1,2-d]imidazol-9-yl}-1H-imidazol-2-yl)pyrrolidin-1-yl]-2-oxo-1-phenylethyl}carbamate], the EC50 was under 1 nM in assay [1] (read-out: 1a Q30R); 0.034 nM in assay [1] (read-out: 1a Q30R (nM)); under 1 nM in assay [2] (read-out: 2a JFH); 0.004 nM in assay [2] (read-out: 2a JFH (nM)); under 1 nM in assay [3] (read-out: 3a); 0.011 nM in assay [3] (read-out: 3a (nM)). Besides, the EC50 was under 1 nM in assay [4] (read-out: 2a J6); 0.138 nM in assay [4] (read-out: 2a J6 (s) (nM)); 0.02 nM in assay [4] (read-out: 2a Jb (t) (nM)); under 1 nM in assay [5] (read-out: 2b); 0.039 nM in assay [5] (read-out: 2b (s) (nM)); 0.007 nM in assay [5] (read-out: 2b (t) (nM)). Besides, the EC50 in assay [6] (read-out: 1a) was under 1 nM; in assay [6] (read-out: 1a (nM)), 0.01 nM; in assay [7] (read-out: 4a), under 1 nM; in assay [7] (read-out: 4a (s) (nM)), 0.025 nM; in assay [7] (read-out: 4a (t) (nM)) it was 0.023 nM.

Consider `COC(=O)N[C@H](C(=O)N1C[C@@H](C)C[C@H]1c1nc2ccc3cc4c(cc3c2[nH]1)OCc1cc(-c2cnc([C@@H]3CC[C@H](C)N3C(=O)[C@@H](NC(=O)OC)C(C)C)[nH]2)ccc1-4)C(C)C` [Example NC, Methyl {(2S)-1-[(2S,5S)-2-(5-{2-[(2S,4S)-1-{(2S)-2-[(methoxycarbonyl)amino]-3-methylbutanoyl}-4-methylpyrrolidin-2-yl]-1,11-dihydroisochromeno[4′,3′:6,7]naphtho[1,2-d]imidazol-9-yl}-1H-imidazol-2-yl)-5-methylpyrrolidin-1-yl]-3-methyl-1-oxobutan-2-yl}carbamate], for which the EC50 in assay [1] (read-out: 1a Q30R) was under 1 nM; in assay [1] (read-out: 1a Q30R (nM)), 0.06 nM; in assay [2] (read-out: 2a JFH), under 1 nM; in assay [2] (read-out: 2a JFH (nM)) it was 0.005 nM; in assay [3] (read-out: 3a) it was under 1 nM; in assay [3] (read-out: 3a (nM)), 0.014 nM. In addition, the EC50 in assay [4] (read-out: 2a J6) was under 1 nM; in assay [4] (read-out: 2a J6 (s) (nM)), 0.762 nM; in assay [4] (read-out: 2a Jb (t) (nM)), 0.089 nM; in assay [5] (read-out: 2b), under 1 nM; in assay [5] (read-out: 2b (s) (nM)), 0.191 nM; in assay [5] (read-out: 2b (t) (nM)) it was 0.068 nM. For the same molecule, the EC50 in assay [6] (read-out: 1a) is under 1 nM; in assay [6] (read-out: 1a (nM)), 0.007 nM; in assay [7] (read-out: 4a) it was under 1 nM; in assay [7] (read-out: 4a (s) (nM)) it was 0.026 nM; in assay [7] (read-out: 4a (t) (nM)), 0.011 nM.

With `COC(=O)N[C@H](C(=O)N1C[C@@H](C)C[C@H]1c1ncc(-c2ccc3c(c2)COc2cc4c(ccc5nc([C@@H]6C[C@H](C)CN6C(=O)[C@@H](NC(=O)OC)C(C)C)[nH]c54)cc2-3)[nH]1)C(C)C` [Example ND, Methyl {(2S)-1-[(2S,5S)-2-(5-{2-[(2S,4S)-1-{(2S)-2-[(methoxycarbonyl)amino]-3-methylbutanoyl}-4-methylpyrrolidin-2-yl]-1,11-dihydroisochromeno[4′,3′:6,7]naphtho[1,2-d]imidazol-9-yl}-1H-imidazol-2-yl)-4-methylpyrrolidin-1-yl]-3-methyl-1-oxobutan-2-yl}carbamate], the EC50 in assay [1] (read-out: 1a Q30R) was under 1 nM; in assay [1] (read-out: 1a Q30R (nM)) it was 0.057 nM; in assay [2] (read-out: 2a JFH) it was under 1 nM; in assay [2] (read-out: 2a JFH (nM)) it was 0.014 nM; in assay [3] (read-out: 3a), under 1 nM; in assay [3] (read-out: 3a (nM)), 0.035 nM. Moreover, the EC50 was under 1 nM in assay [4] (read-out: 2a J6); 2.34 nM in assay [4] (read-out: 2a J6 (s) (nM)); 0.314 nM in assay [4] (read-out: 2a Jb (t) (nM)); under 1 nM in assay [5] (read-out: 2b); 1.32 nM in assay [5] (read-out: 2b (s) (nM)); 0.27 nM in assay [5] (read-out: 2b (t) (nM)). For the same molecule, the EC50 is under 1 nM in assay [6] (read-out: 1a); 0.02 nM in assay [6] (read-out: 1a (nM)); under 1 nM in assay [7] (read-out: 4a); 0.044 nM in assay [7] (read-out: 4a (s) (nM)); 0.031 nM in assay [7] (read-out: 4a (t) (nM)).

`COC(=O)N[C@H](C(=O)N1C[C@@H](C)C[C@H]1c1ncc(-c2ccc3c(c2)COc2cc4c(ccc5nc([C@@H]6C[C@H](C)CN6C(=O)[C@H](NC(=O)OC)c6ccccc6)[nH]c54)cc2-3)[nH]1)C(C)C` [Example NF, Methyl {(2S)-1-[(2S,4S)-2-(5-{2-[(2S,4S)-1-{(2R)-2-[(methoxycarbonyl)amino]-2-phenylacetyl}-4-methylpyrrolidin-2-yl]-1,11-dihydroisochromeno[4′,3′:6,7]naphtho[1,2-d]imidazol-9-yl}-1H-imidazol-2-yl)-4-methylpyrrolidin-1-yl]-3-methyl-1-oxobutan-2-yl}carbamate]: the EC50 in assay [1] (read-out: 1a Q30R) was under 1 nM; in assay [1] (read-out: 1a Q30R (nM)), 0.017 nM; in assay [2] (read-out: 2a JFH) it was under 1 nM; in assay [2] (read-out: 2a JFH (nM)) it was 0.006 nM; in assay [3] (read-out: 3a), under 1 nM; in assay [3] (read-out: 3a (nM)), 0.017 nM. The EC50 was under 1 nM in assay [4] (read-out: 2a J6); 0.218 nM in assay [4] (read-out: 2a J6 (s) (nM)); 0.031 nM in assay [4] (read-out: 2a Jb (t) (nM)); under 1 nM in assay [5] (read-out: 2b); 0.064 nM in assay [5] (read-out: 2b (s) (nM)); 0.018 nM in assay [5] (read-out: 2b (t) (nM)). Besides, the EC50 was under 1 nM in assay [6] (read-out: 1a); 0.011 nM in assay [6] (read-out: 1a (nM)); under 1 nM in assay [7] (read-out: 4a); 0.012 nM in assay [7] (read-out: 4a (s) (nM)); 0.009 nM in assay [7] (read-out: 4a (t) (nM)).

Consider `COC(=O)N[C@H](C(=O)N1[C@@H](C)CC[C@H]1c1ncc(-c2ccc3c(c2)COc2cc4c(ccc5nc([C@@H]6CC[C@H](C)N6C(=O)[C@@H](NC(=O)OC)C(C)C)[nH]c54)cc2-3)[nH]1)C(C)C` [Example NG, Methyl {(2S)-1-[(2S,5S)-2-(5-{2-[(2S,5S)-1-{(2S)-2-[(methoxycarbonyl)amino]-3-methylbutanoyl}-5-methylpyrrolidin-2-yl]-1,11-dihydroisochromeno[4′,3′:6,7]naphtho[1,2-d]imidazol-9-yl}-1H-imidazol-2-yl)-5-methylpyrrolidin-1-yl]-3-methyl-1-oxobutan-2-yl}carbamate], for which the EC50 in assay [1] (read-out: 1a Q30R) is under 1 nM; in assay [1] (read-out: 1a Q30R (nM)) it was 0.243 nM; in assay [2] (read-out: 2a JFH), under 1 nM; in assay [2] (read-out: 2a JFH (nM)), 0.01 nM; in assay [3] (read-out: 3a), under 1 nM; in assay [3] (read-out: 3a (nM)) it was 0.02 nM. For the same molecule, the EC50 was under 1 nM in assay [4] (read-out: 2a J6); 1.67 nM in assay [4] (read-out: 2a J6 (s) (nM)); 0.37 nM in assay [4] (read-out: 2a Jb (t) (nM)); under 1 nM in assay [5] (read-out: 2b); 0.135 nM in assay [5] (read-out: 2b (s) (nM)); 0.063 nM in assay [5] (read-out: 2b (t) (nM)). The EC50 in assay [6] (read-out: 1a) is under 1 nM; in assay [6] (read-out: 1a (nM)) it was 0.006 nM; in assay [7] (read-out: 4a), under 1 nM; in assay [7] (read-out: 4a (t) (nM)), 0.008 nM.

On to `CC[C@H](C)[C@H](NC(=O)OC)C(=O)N1C[C@@H](COC)C[C@H]1c1nc2ccc3cc4c(cc3c2[nH]1)OCc1cc(-c2cnc([C@@H]3CC[C@H](C)N3C(=O)[C@@H](NC(=O)OC)[C@@H](C)CC)[nH]2)ccc1-4` [Example NJ, Methyl {(2S,3S)-1-[(2S,5S)-2-(5-{2-[(2S,4S)-1-{(2S,3S)-2-[(methoxycarbonyl)amino]-3-methylpentanoyl}-4-(methoxymethyl)pyrrolidin-2-yl]-1,11-dihydroisochromeno[4′,3′:6,7]naphtho[1,2-d]imidazol-9-yl}-1H-imidazol-2-yl)-5-methylpyrrolidin-1-yl]-3-methyl-1-oxopentan-2-yl}carbamate], for which the EC50 is under 1 nM in assay [1] (read-out: 1a Q30R); 0.025 nM in assay [1] (read-out: 1a Q30R (nM)); under 1 nM in assay [2] (read-out: 2a JFH); 0.007 nM in assay [2] (read-out: 2a JFH (nM)); under 1 nM in assay [3] (read-out: 3a); 0.019 nM in assay [3] (read-out: 3a (nM)). In addition, the EC50 was under 1 nM in assay [4] (read-out: 2a J6); 0.939 nM in assay [4] (read-out: 2a J6 (s) (nM)); 0.099 nM in assay [4] (read-out: 2a Jb (t) (nM)); under 1 nM in assay [5] (read-out: 2b); 0.416 nM in assay [5] (read-out: 2b (s) (nM)); 0.094 nM in assay [5] (read-out: 2b (t) (nM)). Further, the EC50 is under 1 nM in assay [6] (read-out: 1a), 0.007 nM in assay [6] (read-out: 1a (nM)), under 1 nM in assay [7] (read-out: 4a) and 0.017 nM in assay [7] (read-out: 4a (s) (nM)).
